Experimental data published in US20050070510A1, “Substituted tetracycline compounds as synergistic antifungal agents” (Paratek Pharmaceuticals, Inc., priority 2001, published 2005).

Tested on: COS-1 cells
Assay: In vitro mammalian cytotoxicity assay (Resazurin)

| SMILES | In Vitro Cytotoxicity |
| --- | --- |
| CC(C)NCc1ccc(-c2ccc(O)c3c2[C@H](N)[C@]2(N)C(=C(O)[C@]4(C#N)C(=O)C(C(N)=O)=C(O)[C@@H](N(C)C)[C@]4(N)[C@H]2O)C3=O)o1 [QK] | * (toxicities greater than >25 μg/ml are represented by *) |
| CC(C)CNCc1cc(N(C)C)c2c(c1O)C(=O)C1=C(O)[C@]3(C#N)C(=O)C(C(N)=O)=C(O)[C@@H](N(C)C)[C@]3(N)C[C@]1(N)C2 [ML] | * (toxicities greater than >25 μg/ml are represented by *) |
| CN(C)c1cc(NC(=O)CNC(C)(C)C)c(O)c2c1C[C@@]1(N)C[C@@]3(N)[C@H](N(C)C)C(O)=C(C(N)=O)C(=O)[C@@]3(C#N)C(O)=C1C2=O [LC] | * (toxicities greater than >25 μg/ml are represented by *) |
| CN(C)[C@@H]1C(O)=C(C(N)=O)C(=O)[C@@]2(C#N)C(O)=C3C(=O)c4c(O)ccc(-c5cccc(CNCc6ccccc6)c5)c4C[C@@]3(N)C[C@@]12N [HN] | ** (toxicities less than 25 μg/mL are represented by **) |
| CN(C)CC#Cc1ccc(O)c2c1C[C@@]1(N)C[C@@]3(N)[C@H](N(C)C)C(O)=C(C(N)=O)C(=O)[C@@]3(C#N)C(O)=C1C2=O [FJ] | ** (toxicities less than 25 μg/mL are represented by **) |
| COc1ccc(CNCc2cccc(Cl)c2)cc1-c1ccc(O)c2c1C[C@@]1(N)C[C@@]3(N)[C@H](N(C)C)C(O)=C(C(N)=O)C(=O)[C@@]3(C#N)C(O)=C1C2=O [NJ] | ** (toxicities less than 25 μg/mL are represented by **) |
| CN(C)c1cc(NCC2=CC=C(C(C)(C)C)CC2)c(O)c2c1C[C@@]1(N)C[C@@]3(N)[C@H](N(C)C)C(O)=C(C(N)=O)C(=O)[C@@]3(C#N)C(O)=C1C2=O [TX] | ** (toxicities less than 25 μg/mL are represented by **) |
| CCNC(=O)Nc1cc(N(C)C)c2c(c1O)C(=O)C1=C(O)[C@]3(C#N)C(=O)C(C(N)=O)=C(O)[C@@H](N(C)C)[C@]3(N)C[C@]1(N)C2 [KJ] | ** (toxicities less than 25 μg/mL are represented by **) |
| Cc1cc(C)cc(-c2ccc(O)c3c2C[C@@]2(N)C[C@@]4(N)[C@H](N(C)C)C(O)=C(C(N)=O)C(=O)[C@@]4(C#N)C(O)=C2C3=O)c1 [GD] | ** (toxicities less than 25 μg/mL are represented by **) |
| CN(C)[C@@H]1C(O)=C(C(N)=O)C(=O)[C@@]2(C#N)C(O)=C3C(=O)c4c(O)ccc(C#CC5CCCCC5)c4C[C@@]3(N)C[C@@]12N [FI] | ** (toxicities less than 25 μg/mL are represented by **) |
| CN(C)[C@@H]1C(O)=C(C(N)=O)C(=O)[C@@]2(C#N)C(O)=C3C(=O)c4c(O)ccc(-c5cccc(CN6CCCC6)c5)c4C[C@@]3(N)C[C@@]12N [HL] | * (toxicities greater than >25 μg/ml are represented by *) |
| Cc1ccc(C#Cc2cc(N(C)C)c3c(c2O)C(=O)C2=C(O)[C@]4(C#N)C(=O)C(C(N)=O)=C(O)[C@@H](N(C)C)[C@]4(N)C[C@]2(N)C3)cc1 [FL] | ** (toxicities less than 25 μg/mL are represented by **) |
| CN(C)c1cc(NCc2ccc3c(c2)OCO3)c(O)c2c1C[C@@]1(N)C[C@@]3(N)[C@H](N(C)C)C(O)=C(C(N)=O)C(=O)[C@@]3(C#N)C(O)=C1C2=O [MK] | ** (toxicities less than 25 μg/mL are represented by **) |
| CN(C)[C@@H]1C(O)=C(C(N)=O)C(=O)[C@@]2(C#N)C(O)=C3C(=O)c4c(O)ccc(CNCc5ccc[nH]5)c4C[C@@]3(N)C[C@@]12N [SI] | * (toxicities greater than >25 μg/ml are represented by *) |
| CN(C)c1cc(CCC2(O)CCCC2)c(O)c2c1C[C@@]1(N)C[C@@]3(N)[C@H](N(C)C)C(O)=C(C(N)=O)C(=O)[C@@]3(C#N)C(O)=C1C2=O [PW] | ** (toxicities less than 25 μg/mL are represented by **) |
| CN(C)CCNC(=O)c1ccc(-c2ccc(O)c3c2C[C@@]2(N)C[C@@]4(N)[C@H](N(C)C)C(O)=C(C(N)=O)C(=O)[C@@]4(C#N)C(O)=C2C3=O)cc1 [PC] | * (toxicities greater than >25 μg/ml are represented by *) |
| CCc1cc(-c2ccc(N(C)C)cc2)c2c(c1O)C(=O)C1=C(O)[C@]3(C#N)C(=O)C(C(N)=O)=C(O)[C@@H](N(C)C)[C@]3(N)C[C@]1(N)C2 [PE] | ** (toxicities less than 25 μg/mL are represented by **) |
| CN(C)c1ccc(-c2ccc(O)c3c2C[C@@]2(N)C[C@@]4(N)[C@H](N(C)C)C(O)=C(C(N)=O)C(=O)[C@@]4(C#N)C(O)=C2C3=O)cc1 [EM] | ** (toxicities less than 25 μg/mL are represented by **) |
| CN(C)c1cc(/C=C/c2ccc(F)cc2)c(O)c2c1C[C@@]1(N)C[C@@]3(N)[C@H](N(C)C)C(O)=C(C(N)=O)C(=O)[C@@]3(C#N)C(O)=C1C2=O [CD] | ** (toxicities less than 25 μg/mL are represented by **) |
| CCOc1ccc(-c2ccc(O)c3c2C[C@@]2(N)C[C@@]4(N)[C@H](N(C)C)C(O)=C(C(N)=O)C(=O)[C@@]4(C#N)C(O)=C2C3=O)cc1CN [OR] | * (toxicities greater than >25 μg/ml are represented by *) |
| CCCCCN(Cc1cccc(-c2ccc(O)c3c2C[C@@]2(N)C[C@@]4(N)[C@H](N(C)C)C(O)=C(C(N)=O)C(=O)[C@@]4(C#N)C(O)=C2C3=O)c1)P(=O)(OCC)OCC [KO] | * (toxicities greater than >25 μg/ml are represented by *) |

| SMILES | In Vitro Cytotoxicity |
| --- | --- |
| CN(C)c1cc(C#CCNS(C)(=O)=O)c(O)c2c1C[C@@]1(N)C[C@@]3(N)[C@H](N(C)C)C(O)=C(C(N)=O)C(=O)[C@@]3(C#N)C(O)=C1C2=O [IP] | * (toxicities greater than >25 μg/ml are represented by *) |
| CN(C)CC#Cc1cc(C(C)(C)C)c(O)c2c1C[C@@]1(N)C[C@@]3(N)[C@H](N(C)C)C(O)=C(C(N)=O)C(=O)[C@@]3(C#N)C(O)=C1C2=O [OH] | ** (toxicities less than 25 μg/mL are represented by **) |
| CN(C)[C@@H]1C(O)=C(C(N)=O)C(=O)[C@@]2(C#N)C(O)=C3C(=O)c4c(O)cccc4/C(=C\c4ccc(Cl)cc4)[C@@]3(N)[C@H]([S+](N)[O-])[C@@]12N (stereo partly drawn) [BY] | ** (toxicities less than 25 μg/mL are represented by **) |
| CN(C)c1cc(-c2cccc(O)c2)c(O)c2c1C[C@@]1(N)C[C@@]3(N)[C@H](N(C)C)C(O)=C(C(N)=O)C(=O)[C@@]3(C#N)C(O)=C1C2=O [ES] | ** (toxicities less than 25 μg/mL are represented by **) |
| CN(C)[C@@H]1C(O)=C(C(N)=O)C(=O)[C@@]2(C#N)C(O)=C3C(=O)c4c(ccc(N5CCCCC5)c4O)C[C@@]3(N)C[C@@]12N [SO] | ** (toxicities less than 25 μg/mL are represented by **) |
| CCOC(=O)c1coc(NCc2cc(N(C)C)c3c(c2O)C(=O)C2=C(O)[C@]4(C#N)C(=O)C(C(N)=O)=C(O)[C@@H](N(C)C)[C@]4(N)C[C@]2(N)C3)n1 [TF] | * (toxicities greater than >25 μg/ml are represented by *) |
| CCc1cc(CNCC(C)C)c(O)c2c1C[C@@]1(N)C[C@@]3(N)[C@H](N(C)C)C(O)=C(C(N)=O)C(=O)[C@@]3(C#N)C(O)=C1C2=O [RK] | * (toxicities greater than >25 μg/ml are represented by *) |
| CN(C)c1cc(C#Cc2cccnc2)c(O)c2c1C[C@@]1(N)C[C@@]3(N)[C@H](N(C)C)C(O)=C(C(N)=O)C(=O)[C@@]3(C#N)C(O)=C1C2=O [JH] | ** (toxicities less than 25 μg/mL are represented by **) |
| CN(C)[C@@H]1C(O)=C(C(N)=O)C(=O)[C@@]2(C#N)C(O)=C3C(=O)c4c(O)ccc(-c5cc6ccccc6o5)c4C[C@@]3(N)C[C@@]12N [FW] | ** (toxicities less than 25 μg/mL are represented by **) |
| CN(C)[C@@H]1C(O)=C(C(N)=O)C(=O)[C@@]2(C#N)C(O)=C3C(=O)c4c(O)ccc(I)c4[C@H](N)[C@@]3(N)[C@H](O)[C@@]12N [CL] | ** (toxicities less than 25 μg/mL are represented by **) |
| CC(=O)c1ccc(O)c2c1C[C@@]1(N)C[C@@]3(N)[C@H](N(C)C)C(O)=C(C(N)=O)C(=O)[C@@]3(C#N)C(O)=C1C2=O [GR] | * (toxicities greater than >25 μg/ml are represented by *) |
| CN(C)[C@@H]1C(O)=C(C(N)=O)C(=O)[C@@]2(C#N)C(O)=C3C(=O)c4c(ccc(Nc5nc(C6C7CC8CC(C7)CC6C8)cs5)c4O)[C@H](O)[C@@]3(N)[C@H](O)[C@@]12N (stereo partly drawn) [DX] | ** (toxicities less than 25 μg/mL are represented by **) |
| CN(C)[C@@H]1C(O)=C(C(N)=O)C(=O)[C@@]2(C#N)C(O)=C3C(=O)c4c(O)ccc(C#Cc5cccc(C#N)c5)c4C[C@@]3(N)C[C@@]12N [GQ] | * (toxicities greater than >25 μg/ml are represented by *) |
| CN(C)c1cc(CNc2ccccc2)c(O)c2c1C[C@@]1(N)C[C@@]3(N)[C@H](N(C)C)C(O)=C(C(N)=O)C(=O)[C@@]3(C#N)C(O)=C1C2=O [VD] | ** (toxicities less than 25 μg/mL are represented by **) |
| CN(C)[C@@H]1C(O)=C(C(N)=O)C(=O)[C@@]2(C#N)C(O)=C3C(=O)c4c(O)ccc(/C=C(\Cl)C5=CCCCC5)c4C[C@@]3(N)C[C@@]12N [GG] | ** (toxicities less than 25 μg/mL are represented by **) |
| CN(C)c1cc(C#CC2=CCCC2)c(O)c2c1C[C@@]1(N)C[C@@]3(N)[C@H](N(C)C)C(O)=C(C(N)=O)C(=O)[C@@]3(C#N)C(O)=C1C2=O [KN] | ** (toxicities less than 25 μg/mL are represented by **) |
| Cc1ccc(-c2ccc(O)c3c2C[C@@]2(N)C[C@@]4(N)[C@H](N(C)C)C(O)=C(C(N)=O)C(=O)[C@@]4(C#N)C(O)=C2C3=O)cc1 [FR] | ** (toxicities less than 25 μg/mL are represented by **) |
| CN(C)c1cc(CN(Cc2ccn[nH]2)Cc2ccn[nH]2)c(O)c2c1C[C@@]1(N)C[C@@]3(N)[C@H](N(C)C)C(O)=C(C(N)=O)C(=O)[C@@]3(C#N)C(O)=C1C2=O [TA] | * (toxicities greater than >25 μg/ml are represented by *) |
| CN(C)[C@@H]1C(O)=C(C(N)=O)C(=O)[C@@]2(C#N)C(O)=C3C(=O)c4c(O)cccc4/C(=C\c4cccc(C(N)=O)c4)[C@@]3(N)[C@H](O)[C@@]12N [CK] | * (toxicities greater than >25 μg/ml are represented by *) |
| CN(C)[C@@H]1C(O)=C(C(N)=O)C(=O)[C@@]2(C#N)C(O)=C3C(=O)c4c(ccc(/C=C/C(=O)O)c4O)[C@H](O)[C@@]3(N)[C@H](O)[C@@]12N [AV] | ** (toxicities less than 25 μg/mL are represented by **) |
| CN(C)[C@@H]1C(O)=C(C(N)=O)C(=O)[C@@]2(C#N)C(O)=C3C(=O)c4c(O)ccc(C#Cc5ccccc5F)c4C[C@@]3(N)C[C@@]12N [GH] | ** (toxicities less than 25 μg/mL are represented by **) |
